Marks after values point to notes of the source that are not given here. Where no end group is shown, it is not given here.
How the values were obtained:
Lung cancer tumor cells = assay: MTT proliferation inhibition, lung cancer cells; assay type: cell-based, human; set-up: concentration or dose not given beside the values; conditions: 48 h
Summary of the method: (§1)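 Tumour cells plated at 2×10^4 cells/mL, attached overnight, then exposed to dilutions of mPEG-HM-1 for 48 h at 37 °C, 5% CO2. MTT added 4 h, formazan dissolved in DMSO, absorbance 570/630 nm; growth inhibition = 1 − treated/untreated, three independent repeats, mean±SD.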

[1] = system: Colorectal cancer tumor cells; assay: MTT proliferation inhibition, colorectal cancer cells; assay type: cell-based, human; set-up: concentration or dose not given beside the values; conditions: 48 h
Summary of the method: as §1

mouse spleen lymphocytes = assay: ConA-stimulated mouse spleen lymphocyte proliferation (MTT); assay type: cell-based; conditions: ConA 5 μg/mL, 48 h
Summary of the method: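 Spleen cells, red cells lysed with Tris-NH4Cl, plated at 5×10^6/mL in RPMI 1640 with 10% calf serum alongside blank, ConA and Dex (0.02 mg/mL) groups. After 48 h at 37° C., MTT added for 4 h, formazan dissolved in DMSO, OD read at 570 nm, 5 replicates.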

[2] = system: IL-1β production by mouse peritoneal macrophages; assay: IL-1β production by mouse peritoneal macrophages (ELISA); assay type: cell-based; conditions: 48 h
Summary of the method: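 Starch-elicited mouse peritoneal macrophages (2×10^6 cells/mL), adhered 3 h, treated with low, medium and high concentrations of mPEG-HM-1 for 48 h; dexamethasone as positive control. Supernatant IL-1β quantified by sandwich ELISA at OD450.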

[3] = system: xylene-induced ear swelling in Kunming mice; assay: Xylene-induced ear swelling in mice; assay type: in vivo, mouse; conditions: for Inhibition rate: ear swelling vs control
Summary of the method: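 Kunming mice were dosed once daily for 5 days (aspirin 200 mg/kg as positive control, saline as blank). One hour after the last dose, xylene was applied to the right ear, with the left ear as untreated reference. Ear punches were weighed 2 h later; swelling degree = right − left weight, rate = degree/left weight ×100%.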

[4] = system: retinal neovascular clusters in OIR C57/B16 mice; assay: Retinal blood vessels in OIR mice; assay type: in vivo, mouse; conditions: for Neovascular clusters area: retina evaluated on day 17; for Inhibition rate: neovascular clusters area vs control, day 17; for inhibition rate of retinal neovascular clusters: OIR mice, 50 μg intravitreal injection, evaluated day 17
Source text: Establishment of the OIR model: Exposure of young mouse and their mothers to 75% hyperoxic environment from day 7 to day 12 after birth of C57/B16 mice caused rapid disappearance of capillaries in the central retina. Upon returning to the indoor air on the 12th day, the retinal blood vessels, upon exposing to hyperoxia, rapidly disappeared, causing extensive abnormal neovascularization, and the central portion of the retina remained largely avascular for a long time. After the blood vessels disappeared completely, on the 13th day, physiological saline (negative control group), mPEG-SC-HM-1, mPEG2-NHS-HM-1, mPEG-ALD10k-HM-1, and mPEG-bALD-HM-1, were administered by intravitreal injection and retinal vessels were evaluated on day 17 (to label unclosed vessels, […] of Texas Red-labeled tomato lectin was injected into the left ventricle and circulated for 5 min).

[5] = 5 mg/kg once daily for 5 days, right minus left ear piece weight 2 h after xylene
[6] = 10 mg/kg once daily for 5 days, 2 h after xylene
[7] = 20 mg/kg once daily for 5 days, 2 h after xylene
[8] = 25 μg intravitreal injection on day 13
[9] = 40 mg/kg once daily for 5 days, 2 h after xylene
[10] = 50 μg intravitreal injection on day 13
[11] = 80 mg/kg once daily for 5 days, 2 h after xylene

Row | Substance | rate of growth inhibition (Lung cancer tumor cells) [%] | rate of growth inhibition [1] [%] | A570 nm/A630 nm (mouse spleen lymphocytes; 10 μg/mL) | Inhibition Rate of spleen lymphocyte proliferation (mouse spleen lymphocytes; 10 μg/mL) [%] | A570 nm/A630 nm (mouse spleen lymphocytes; 20 μg/mL) | Inhibition Rate of spleen lymphocyte proliferation (mouse spleen lymphocytes; 20 μg/mL) [%] | IL-1β ([2]; 10 μg/mL) [pg/mL] | Inhibition Rate of IL-1β production ([2]; 10 μg/mL) [%] | IL-1β ([2]; 20 μg/mL) [pg/mL] | Inhibition Rate of IL-1β production ([2]; 20 μg/mL) [%] | Swelling [3, 6] | Inhibition rate ([3]; 10 mg/kg once daily for 5 days) [%] | Swelling [3, 7] | Inhibition rate ([3]; 20 mg/kg once daily for 5 days) [%] | A570 nm/A630 nm (mouse spleen lymphocytes; 40 μg/mL) | Inhibition Rate of spleen lymphocyte proliferation (mouse spleen lymphocytes; 40 μg/mL) [%] | IL-1β ([2]; 40 μg/mL) [pg/mL] | Inhibition Rate of IL-1β production ([2]; 40 μg/mL) [%] | Swelling [3, 9] | Inhibition rate ([3]; 40 mg/kg once daily for 5 days) [%] | further results
1 | mPEG-SC5k-Arg-Gly-Ala-Asp-Arg-Ala-Gly-Gly-Gly-Gly-Arg-Gly-Asp ({mPEG‑SC 5 kDa}-RGADRAGGGGRGD) [mPEG-SC5k-HM-1] | 45.33 ± 12.67 | 55.35 ± 12.82 | 0.5480 ± 0.1081 | 20.54 | 0.4954 ± 0.1219 | 28.16 | 678.12 ± 12.09 | 27.63 | 561.18 ± 13.21 | 40.11 | 4.90 ± 0.35* mg | 20.13 | 4.17 ± 0.19** mg | 32.10 | – | – | – | – | – | – | A570 nm/A630 nm (mouse spleen lymphocytes; 5 μg/mL): 0.6253 ± 0.0947; Inhibition Rate of spleen lymphocyte proliferation (mouse spleen lymphocytes; 5 μg/mL): 9.32%; IL-1β ([2]; 5 μg/mL): 762.83 ± 15.46 pg/mL; Inhibition Rate of IL-1β production ([2]; 5 μg/mL): 18.59%; Inhibition rate ([3]; 5 mg/kg once daily for 5 days): 9.57%; Swelling [3, 5]: 5.55 ± 0.21 mg; Neovascular clusters area [4, 8]: 0.116 ± 0.012 mm^2; Inhibition rate ([4]; 25 μg intravitreal): 47.42%*
2 | mPEG-SC10k-Arg-Gly-Ala-Asp-Arg-Ala-Gly-Gly-Gly-Gly-Arg-Gly-Asp ({mPEG‑SC 10 kDa}-RGADRAGGGGRGD) [mPEG-SC10k-HM-1] | 50.29 ± 13.18 | 61.35 ± 16.88 | 0.6234 ± 0.0976 | 9.60 | 0.5488 ± 0.1052 | 20.42 | 758.05 ± 15.18 | 19.10 | 666.50 ± 11.93 | 28.87 | 5.49 ± 0.23 mg | 10.55 | 4.83 ± 0.32* mg | 21.37 | 0.4788 ± 0.1282 | 30.57 | 553.03 ± 14.12 | 40.98 | 3.98 ± 0.21** mg | 35.20 | Neovascular clusters area [4, 10]: 0.096 ± 0.008 mm^2; Inhibition rate ([4]; 50 μg intravitreal): 56.56%**; inhibition rate of retinal neovascular clusters [4]: 56.56%
3 | mPEG-SC20k-Arg-Gly-Ala-Asp-Arg-Ala-Gly-Gly-Gly-Gly-Arg-Gly-Asp ({mPEG‑SC 20 kDa}-RGADRAGGGGRGD) [mPEG-SC20k-HM-1] | 53.87 ± 15.66 | 66.19 ± 20.58 | – | – | 0.6213 ± 0.0996 | 9.91 | – | – | 761.42 ± 16.96 | 18.74 | – | – | 5.38 ± 0.17 mg | 12.36 | 0.5444 ± 0.1120 | 21.06 | 653.20 ± 18.59 | 30.29 | 4.69 ± 0.79* mg | 23.67 | A570 nm/A630 nm (mouse spleen lymphocytes; 80 μg/mL): 0.4741 ± 0.1270; Inhibition Rate of spleen lymphocyte proliferation (mouse spleen lymphocytes; 80 μg/mL): 31.25%; IL-1β ([2]; 80 μg/mL): 512.27 ± 10.50 pg/mL; Inhibition Rate of IL-1β production ([2]; 80 μg/mL): 45.33%; Swelling [3, 11]: 3.77 ± 0.33** mg; Inhibition rate ([3]; 80 mg/kg once daily for 5 days): 38.58%; Neovascular clusters area ([4]; 100 μg intravitreal injection on day 13): 0.110 ± 0.010 mm^2; Inhibition rate ([4]; 100 μg intravitreal): 50.23%**
4 | mPEG-SC40k-Arg-Gly-Ala-Asp-Arg-Ala-Gly-Gly-Gly-Gly-Arg-Gly-Asp ({mPEG‑SC 40 kDa}-RGADRAGGGGRGD) [mPEG-SC40k-HM-1] | 51.32 ± 16.29 | 62.45 ± 19.22 | – | – | – | – | – | – | – | – | – | – | – | – | 0.6212 ± 0.0972 | 9.92 | 774.07 ± 15.32 | 17.39 | 5.51 ± 0.13 mg | 10.27 | A570 nm/A630 nm (mouse spleen lymphocytes; 80 μg/mL): 0.5493 ± 0.1056; Inhibition Rate of spleen lymphocyte proliferation (mouse spleen lymphocytes; 80 μg/mL): 20.34%; A570 nm/A630 nm (mouse spleen lymphocytes; 160 μg/mL): 0.4794 ± 0.1214; Inhibition Rate of spleen lymphocyte proliferation (mouse spleen lymphocytes; 160 μg/mL): 30.48%; IL-1β ([2]; 80 μg/mL): 670.72 ± 16.71 pg/mL; Inhibition Rate of IL-1β production ([2]; 80 μg/mL): 28.42%; IL-1β ([2]; 160 μg/mL): 553.22 ± 10.82 pg/mL; Inhibition Rate of IL-1β production ([2]; 160 μg/mL): 40.96%; Swelling [3, 11]: 4.76 ± 0.72* mg; Inhibition rate ([3]; 80 mg/kg once daily for 5 days): 22.42%; Swelling ([3]; 160 mg/kg once daily for 5 days, 2 h after xylene): 3.87 ± 0.27** mg; Inhibition rate ([3]; 160 mg/kg once daily for 5 days): 37.01%; Neovascular clusters area ([4]; 200 μg intravitreal injection on day 13): 0.119 ± 0.005 mm^2; Inhibition rate ([4]; 200 μg intravitreal): 46.18%*
5 | mPEG-bALD5k-Arg-Gly-Ala-Asp-Arg-Ala-Gly-Gly-Gly-Gly-Arg-Gly-Asp ({mPEG‑bALD 5 kDa}-RGADRAGGGGRGD) [mPEG-bALD5k-HM-1] | 47.56 ± 12.22 | 59.35 ± 12.64 | 0.5645 ± 0.1114 | 18.64 | 0.4957 ± 0.1286 | 28.56 | 659.63 ± 16.52 | 28.47 | 533.11 ± 10.87 | 42.19 | 4.83 ± 0.30* mg | 20.47 | 4.18 ± 0.25** mg | 31.08 | – | – | – | – | – | – | A570 nm/A630 nm (mouse spleen lymphocytes; 5 μg/mL): 0.6257 ± 0.1022; Inhibition Rate of spleen lymphocyte proliferation (mouse spleen lymphocytes; 5 μg/mL): 9.82%; IL-1β ([2]; 5 μg/mL): 729.25 ± 18.34 pg/mL; Inhibition Rate of IL-1β production ([2]; 5 μg/mL): 20.92%; Inhibition rate ([3]; 5 mg/kg once daily for 5 days): 10.36%; Swelling [3, 5]: 5.44 ± 0.19 mg; Neovascular clusters area [4, 8]: 0.108 ± 0.008 mm^2; Inhibition rate ([4]; 25 μg intravitreal): 51.17%**
6 | mPEG-bALD10k-Arg-Gly-Ala-Asp-Arg-Ala-Gly-Gly-Gly-Gly-Arg-Gly-Asp ({mPEG‑bALD 10 kDa}-RGADRAGGGGRGD) [mPEG-bALD10k-HM-1] | 66.72 ± 14.42 | 75.62 ± 18.03 | 0.6179 ± 0.1049 | 10.94 | 0.5469 ± 0.1122 | 21.18 | 720.77 ± 16.65 | 21.84 | 633.90 ± 14.73 | 31.26 | 5.37 ± 0.14 mg | 11.54 | 4.64 ± 0.72* mg | 23.63 | 0.4666 ± 0.1040 | 32.75 | 460.53 ± 10.42 | – | 3.59 ± 0.35** mg | 40.88 | Neovascular clusters area [4, 10]: 0.083 ± 0.006 mm^2; Inhibition rate ([4]; 50 μg intravitreal): 62.35%**; inhibition rate of retinal neovascular clusters [4]: 62.35%

— patent US10869931B2, “Polyethylene glycol-modified angiogenesis inhibitor HM-1 and application thereof” (NANJING ANJI BIOLOGICAL TECHNOLOGY CO.,LTD, priority 2016, dated 2020)
